This note sets out measurements from patent publication US8187586B2, “Methods of inducing apoptosis in hyperproliferative cells” (Case Western Reserve University, priority 2001, dated 2012).

One assay relates to LNCaP cells. The assay is described as follows: Western blot of endogenous KChAP (899 antibody) after apoptotic stimulus. The assay is classed as cell-based, human. An excerpt: (§1) Antibodies and Western Blotting Two antibodies were used to monitor intracellular levels of KChAP protein in control and Ad/KChAP infected cells. Antibody 899 was raised against a bacterial fusion protein which consisted of the C-terminal 169 amino acids of KChAP (Wible et al, 1998; Kuryshecv et al 2000). It recognizes both endogenous and overexpressed KChAP. Antibody 088 was raised against a peptide in the N-terminus of KChAP which is not present in PIAS3 (SPSPLASIPPTLLTPGTLL-GPKREVDMH, SEQ ID NO. 3). Antibody 088 recognizes only overexpressed, not endogenous, KChAP. Affinity purified antibodies were used in Western blotting. Other antibodies used for Western blotting to detect the following proteins were obtained from commercial sources: p53 (DO-1; Santa Cruz Biotech.), STAT1, STAT3, and cyclins A, B, and D3 (Transduction Labs), actin (clone AC-40, Sigma), phospho-p53 (ser 15) (Cell Signaling Tech. Inc.), PARP (we used two antibodies interchangeably which recognize both intact and cleaved PARP; one from Cell Signaling Inc., and one from Pharmingen), monoclonal Rb (Pharmingen), and p21 (WAF1 Ab1; Oncogene Res. Pdts).
(§2) Cells were lysed in a buffer consisting of 1% Triton-X 100, 150 mM NaCl, 50 mM Tris, 1 mM EDTA, pH 7.5 containing freshly added protease inhibitors (Complete, Roche Mol. Biol.) and the phosphatase inhibitors sodium fluoride (50 mM) and sodium orthovanadate (1 mM) for 30 minutes on ice. Insoluble debris was pelleted at 20,800×g for 10 minutes at 4° C. Lysate protein concentrations were determined by the BCA method (Pierce), and aliquots were boiled in a reducing SDS sample buffer to denature protein. SDS PAGE gels were blotted to PVDF membranes using a semi-dry blotting apparatus. Blots were blocked overnight in 5% milk (Bio-Rad) in PBS-T (PBS plus 0.1% Tween-20) at 4° C. Primary antibodies diluted in blocking buffer were incubated with the blots for one hour at room temperature (RT). Blots were washed with PBS-T and incubated with HRP (horseradish peroxidase)-conjugated secondary antibodies (Amersham Pharmacia) in blocking buffer for 1 hour at RT. Blots were developed with the ECL-Plus kit (Amersham Pharmacia).
(§3) We observed an increase in the amount of endogenous KChAP detected in cells exposed to STS. […] Multiple bands are detected in both cell lysates with the 899 antibody; a 68 kD doublet which is close to the predicted molecular weight of KChAP and PIAS3 and an upper band of about 85 kD. […] The signal then drops to control levels or lower after about 6 hours in LNCaP cells and around 4 to 6 hours in Jurkat cells. This peak in immunoreactivity largely precedes detection of PARP cleavage, a marker for apoptosis. […] There was no change in the 85 kD band. […]

Another assay has as its system Jurkat cells. The description is as above. The note with it: for signal of the 68 kD KChAP doublet (899 antibody): STS 1 μM. The assay is classed as cell-based.
Description: as §1, §2, §3

Assay [1] has as its system prostate cancer cells and breast cancer cells versus cardiomyocytes. The assay can be described thus: Sensitivity of cancer versus non-cancerous cells to KChAP overexpression. It is filed as cell-based.

In the case of `CC[C@@]1(O)C(=O)OCc2c1cc1n(c2=O)Cc2cc3ccccc3nc2-1` [camptothecin], the “pattern of KChAP immunoreactivity after apoptotic inducing drug” value in the assay with LNCaP cells (cell line not specified, data not shown) was “the same pattern was also obtained”.
As to `CN[C@@H]1C[C@H]2O[C@@](C)([C@@H]1OC)n1c3ccccc3c3c4c(c5c6ccccc6n2c5c31)C(=O)NC4` [staurosporine], in the assay on LNCaP cells (LNCaP, STS 1 μM), the “signal of the 68 kD KChAP doublet (899 antibody)” value (shortened to “signal of the 68 kD KChAP doublet”) was “immunoreactivity increases” and the “time after which KChAP signal drops to control levels or lower” value is “about 6 hours”. The “signal of the 68 kD KChAP doublet” value with LNCaP cells (LNCaP, STS 1 μM, listed as STS) is “increased as early as one hour after the addition of STS”. Besides, in the assay with Jurkat cells, the “KChAP content of Jurkat cells” value is recorded as “greatly increases their KChAP content”, the “apoptosis in Jurkat cells” value is reported as “causes apoptosis” and the “signal of the 68 kD KChAP doublet” value was “immunoreactivity increases”. Moreover, the “signal of the 68 kD KChAP doublet” value with Jurkat cells (listed as STS) was “increased as early as one hour after the addition of STS”.

B1: KChAP: potassium channel modulatory protein, human sequence SEQ ID NO:2, overexpressed in cells (protein, listed as Homo sapiens)
chain: MKIKELYRRRFPRKTLGPSDLSLLSLPPGTSPVGSPGPLAPIPPTLLAPGTLLGPKREVDMHPPLPQPVHPDVTMKPLPFYEVYGELIRPTTLASTSSQRFEEAHFTFALTPQQVQQILTSREVLPGAKCDYTIQVQLRFCLCETSCPQEDYFPPNLFVKVNGKLCPLPGYLPPTKNGAEPKRPSRPINITPLARLSATVPNTIVVNWSSEFGRNYSLSVYLVRQLTAGTLLQKLRAKGIRNPDHSRALIKEKLTADPDSEVATTSLRVSLMCPLGKMRLTVPCRALTCAHLQSFDAALYLQMNEKKPTWTCPVCDKKAPYESLIIDGLFMEILSSCSDCDEIQFMEDGSWCPMKPKKEASEVCPPPGYGLDGLQYSPVQGGDPSENKKKVEVIDLTIESSSDEEDLPPTKKHCSVTSAAIPALPGSKGVLTSGHQPSSVLRSPAMGTLGGDFLSSLPLHEYPPAFPLGADIQGLDLFSFLQTESQHYGPSVITSLDEQDALGHFFQYRGTPSHFLGPLAPTLGSSHCSATPAPPPGRVSSIVAPGGALREGHGGPLPSGPSLTGCRSDIISLD
On to B1, for which the “sensitivity of cancer cells relative to non-cancerous cells such as cardiomyocytes” value in assay [1] is reported as “about ten times more sensitive”.
